Among the data in ChEMBL document CHEMBL1147569, “Synthesis and structure-activity relationships of (R)-1-alkyl-3-[2-(2-amino)phenethyl]-5-(2-fluorophenyl)-6-methyluracils as human GnRH receptor antagonists” (Bioorg Med Chem Lett, 2004) are Ki and IC50 values, retold here.

Test [1] deals with T1, Gonadotropin-releasing hormone receptor (Homo sapiens, UniProt P30968).
T1 sequence (P30968 whole entry): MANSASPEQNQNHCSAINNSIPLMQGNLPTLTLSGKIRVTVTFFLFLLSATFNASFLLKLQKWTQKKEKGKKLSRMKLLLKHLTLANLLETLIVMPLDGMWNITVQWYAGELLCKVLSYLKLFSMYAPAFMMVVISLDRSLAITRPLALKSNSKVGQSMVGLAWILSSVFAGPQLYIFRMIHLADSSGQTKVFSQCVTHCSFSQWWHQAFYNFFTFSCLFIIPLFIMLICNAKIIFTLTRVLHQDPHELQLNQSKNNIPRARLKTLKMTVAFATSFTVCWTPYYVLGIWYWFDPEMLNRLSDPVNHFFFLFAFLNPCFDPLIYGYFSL
The experiment in a line: Binding affinity towards human gonadotropin-releasing hormone receptor expressed in HEK293 cells using des-Gly10-[125I]Tyr,5 DLeu,6 NMeLeu,7 Pro9-NEt GnRH as radioligand. It is filed as cell-based.

The test system of test [2] is HEK293. The experiment in a line: Inhibitory activity against GnRH (5 nM) stimulated [Ca2+] release in transfected cells. It is filed as functional, cell-based. Particulars: Homo sapiens.

Usually Ki stands for the dissociation constant of the complex between target and ligand, obtained from inhibition or displacement. A high value points to lower affinity. In test [1], `Cc1c(-c2ccccc2F)c(=O)n(C[C@H](N)c2ccccc2)c(=O)n1Cc1ccc(F)cc1Cl` showed an inhibition constant (Ki) of 33 nM.

With `Cc1c(-c2ccccc2F)c(=O)n(C[C@H](N)c2ccccc2)c(=O)n1C(C)c1ccccc1` (some centres not stated), the affinity in test [1], expressed as Ki, was 140 nM.

`Cc1c(-c2ccccc2F)c(=O)n(C[C@H](N)c2ccccc2)c(=O)n1Cc1ccccn1` came in with a Ki in test [1] of 77 nM.

In test [1], `Cc1c(-c2ccccc2F)c(=O)n(C[C@H](N)c2ccccc2)c(=O)n1Cc1cccc(F)c1` had a Ki of 67 nM.

The molecule `Cc1c(-c2ccccc2F)c(=O)n(C[C@H](N)c2ccccc2)c(=O)n1Cc1ccccc1Cl` registered a Ki in test [1] of 27 nM.

Molecule `COc1ccccc1Cn1c(C)c(-c2ccccc2F)c(=O)n(C[C@H](N)c2ccccc2)c1=O` registered a Ki in test [1] of 230 nM.

One may read the IC50 as the point on the concentration scale where inhibition reaches its midpoint. A high value points to weaker potency in that assay. `Cc1c(-c2ccccc2F)c(=O)n(C[C@H](N)c2ccccc2)c(=O)n1Cc1c(F)cccc1Cl` gave an IC50 in test [2] of 2.8 nM. Further, in test [1], the Ki was determined as 0.7 nM.

On to `Cc1c(-c2ccccc2F)c(=O)n(C[C@H](N)c2ccccc2)c(=O)n1Cc1c(F)cccc1F`, for which the Ki in test [1] stood at 6 nM.

Molecule `Cc1c(-c2ccccc2F)c(=O)n(C[C@H](N)c2ccccc2)c(=O)n1Cc1cccnc1` came in with an inhibition constant (Ki) in test [1] of 700 nM.

The molecule `Cc1c(-c2ccccc2F)c(=O)n(C[C@H](N)c2ccccc2)c(=O)n1CCN(C)C` gave a Ki in test [1] of over 10000 nM.

Molecule `Cc1c(-c2ccccc2F)c(=O)n(C[C@H](N)c2ccccc2)c(=O)n1CCc1ccccn1` returned a Ki in test [1] of over 10000 nM.

Regarding `CCCCCn1c(C)c(-c2ccccc2F)c(=O)n(C[C@H](N)c2ccccc2)c1=O`, affinity in test [1] was put at a Ki of 230 nM.

Molecule `Cc1c(-c2ccccc2F)c(=O)n(C[C@H](N)c2ccccc2)c(=O)n1C1CCCCC1` showed a Ki in test [1] of 260 nM.

As to `Cc1ccc(Cn2c(C)c(-c3ccccc3F)c(=O)n(C[C@H](N)c3ccccc3)c2=O)o1`, in test [1], the Ki came out at 430 nM.

As for `Cc1c(-c2ccccc2F)c(=O)n(C[C@H](N)c2ccccc2)c(=O)n1CC1CC1`, in test [1], the affinity corresponds to a Ki of 1100 nM. Compared with the last molecule, the Ki is about 2.6-fold higher.

On to `COCCn1c(C)c(-c2ccccc2F)c(=O)n(C[C@H](N)c2ccccc2)c1=O`, for which, in test [1], the Ki worked out at 1700 nM.

Regarding `Cc1c(-c2ccccc2F)c(=O)n(C[C@H](N)c2ccccc2)c(=O)n1Cc1ccccc1`, in test [1], the Ki was 57 nM.

In turn, `Cc1c(-c2ccccc2F)c(=O)n(C[C@H](N)c2ccccc2)c(=O)n1Cc1ccccc1C(F)(F)F` came in with a Ki in test [1] of 4 nM.

With `Cc1c(-c2ccccc2F)c(=O)n(C[C@H](N)c2ccccc2)c(=O)n1Cc1ccc(F)cc1`, in test [1], the Ki amounted to 75 nM.

For `Cc1c(-c2ccccc2F)c(=O)n(C[C@H](N)c2ccccc2)c(=O)n1CC1CCCCC1`, the inhibition constant (Ki) in test [1] was determined as 200 nM.

For the molecule `Cc1c(-c2ccccc2F)c(=O)n(C[C@H](N)c2ccccc2)c(=O)n1CCO`, the inhibitory constant (Ki) in test [1] was over 10000 nM.

Take `Cc1c(-c2ccccc2F)c(=O)n(C[C@H](N)c2ccccc2)c(=O)n1Cc1ccccc1F`: the affinity in test [1], expressed as Ki, was 20 nM.

Molecule `Cc1c(-c2ccccc2F)c(=O)n(C[C@H](N)c2ccccc2)c(=O)n1CCN1CCNCC1` gave an inhibitory constant (Ki) in test [1] of over 10000 nM.

Regarding `Cc1c(-c2ccccc2F)c(=O)n(C[C@H](N)c2ccccc2)c(=O)n1CC(C)C`, in test [1], the affinity corresponds to a Ki of 500 nM.

The molecule `Cc1c(-c2ccccc2F)c(=O)n(C[C@H](N)c2ccccc2)c(=O)n1CCc1ccccc1` yielded a Ki in test [1] of 1000 nM.

Regarding `Cc1ccccc1Cn1c(C)c(-c2ccccc2F)c(=O)n(C[C@H](N)c2ccccc2)c1=O`, the inhibition constant Ki in test [1] was 35 nM. This Ki is about 29-fold lower than that of the molecule before.
